Reference: BindingDB's records for patent USRE49080 (Novartis AG, 2022)

Molecular target: T1, Sodium/glucose cotransporter 2 (Homo sapiens, UniProt P31639)
T1 sequence (P31639 whole entry): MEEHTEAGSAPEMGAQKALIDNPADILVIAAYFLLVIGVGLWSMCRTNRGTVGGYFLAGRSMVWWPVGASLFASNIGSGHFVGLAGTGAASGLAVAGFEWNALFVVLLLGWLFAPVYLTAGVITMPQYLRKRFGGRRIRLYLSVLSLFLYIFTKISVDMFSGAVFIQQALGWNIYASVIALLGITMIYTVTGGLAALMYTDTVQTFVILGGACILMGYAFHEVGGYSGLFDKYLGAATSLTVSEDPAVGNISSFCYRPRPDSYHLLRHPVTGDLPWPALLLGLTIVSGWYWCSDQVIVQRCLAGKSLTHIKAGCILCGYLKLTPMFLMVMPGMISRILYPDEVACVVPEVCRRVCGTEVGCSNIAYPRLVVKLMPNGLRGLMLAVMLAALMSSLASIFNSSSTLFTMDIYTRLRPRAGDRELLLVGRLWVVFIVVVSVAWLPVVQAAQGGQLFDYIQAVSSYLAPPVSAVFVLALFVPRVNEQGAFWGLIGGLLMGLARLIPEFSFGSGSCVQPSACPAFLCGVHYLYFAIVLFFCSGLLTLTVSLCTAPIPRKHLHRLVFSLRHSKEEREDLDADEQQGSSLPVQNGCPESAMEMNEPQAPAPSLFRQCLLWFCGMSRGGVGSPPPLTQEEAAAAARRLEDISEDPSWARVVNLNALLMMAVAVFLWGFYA
Assay: Inhibitory Effect on the Sodium-dependent Glucose Co-Transporter SGLT, SGLT1 and SGLT2
Description: The SGLT-2 assay is carried out as follows: CHO-hSGLT2 cells are cultivated in Ham's F12 Medium (BioWhittaker) with 10% foetal calf serum and 250 μg/mL zeocin (Invitrogen), and HEK293-hSGLT2 cells are cultivated in DMEM medium with 10% foetal calf serum and 250 μg/mL zeocin (Invitrogen). The cells are detached from the culture flasks by washing twice with PBS and subsequently treating with trypsin/EDTA. After the addition of cell culture medium the cells are centrifuged, resuspended in culture medium and counted in a Casy cell counter. Then 40,000 cells per well are seeded into a white, 96-well plate coated with poly-D-lysine and incubated overnight at 37° C., 5% CO2. […] 250 μl of assay buffer and 5 μl of test compound are then added to each well and the plate is incubated for a further 15 minutes in the incubator. 5 μl of 10% DMSO are used as the negative control. The reaction is started by adding 5 μl of 14 C-AMG (0.05 μCi) to each well. After 2 hours' incubation at 37° C., 5% CO2, the cells are washed again with 250 μl of PBS ([…]) and then lysed by the addition of 25 μl of 0.1 N NaOH (5 min. at 37° C.). 200 μl of MicroScint20 (Packard) are added to each well and incubation is continued for a further 20 min at 37° C.

Q: `CN1CCOc2ccc(Cc3cc([C@@H]4O[C@H](CO)[C@@H](O)[C@H](O)[C@H]4O)ccc3Cl)cc21` [USRE49080, Example 11] was tested. Which IC50 did it give?
A: Its IC50 is 1.4 nM.
